Two compounds from patent US7842856B2, “Herbicide resistance gene, compositions and methods” (The Board of Trustees of the University of Illinois, priority 2005, dated 2010) can be followed below.

Experiment [1] concerns A. tuberculatus F2 and backcross lines. Kind of experiment: Inheritance of resistance: R or S response of F2 and backcross lines to lactofen. Type of experiment: in vivo, Amaranthus tuberculatus.
The subject of experiment [2] is A. tuberculatus R (PPO inhibitor-resistant) parent. The experiment is described as follows: Herbicide dose-response on whole plants, R parent. In kind it is in vivo, Amaranthus tuberculatus (waterhemp). The note with it: for GR50 (growth reduction by 50%) R: R line.
[3] abbreviates: male F1(R) x female F1(R), lactofen 110 g ai ha^−1 plus 1% COC, 15 days after treatment, N 400.
Setting [4] is: male F1(R) x female R, lactofen 110 g ai ha^−1, 15 days, N 200.
Where [5] appears, read: male F1(R) x female S, lactofen 110 g ai ha^−1, 15 days, N 200.
[6] abbreviates: male F1(S) x female F1(S), lactofen 110 g ai ha^−1, 15 days, N 400.
[7] abbreviates: male F1(S) x female R, lactofen 110 g ai ha^−1, 15 days, N 200.
Setting [8] is: male F1(S) x female S, lactofen 110 g ai ha^−1, 15 days, N 200.

On to `CCOC(=O)C(C)OC(=O)c1cc(Oc2ccc(C(F)(F)F)cc2Cl)ccc1[N+](=O)[O-]` (racemic) [Lactofen, (±)-2-ethoxy-1-methyl-2-oxoethyl 5-{2-chloro-4-(trifluoromethyl)phenoxy}-2-nitrobenzoate], for which the “Observed numbers R” value in experiment [1] (setting [3]) is 297; in experiment [1] (setting [4]) it was 200; in experiment [1] (setting [5]), 98; in experiment [1] (setting [6]), 304; in experiment [1] (setting [7]), 200; in experiment [1] (setting [8]), 109. The “Observed numbers S” value in experiment [1] (setting [3]) worked out at 103; in experiment [1] (setting [4]) it was 0; in experiment [1] (setting [5]), 102; in experiment [1] (setting [6]), 96; in experiment [1] (setting [7]) it was 0; in experiment [1] (setting [8]), 91. For the same compound, the “GR50 (growth reduction by 50%) R” value in experiment [2] (10 DAT) was found to be 2.9 g ai ha^−1; in experiment [2] (15 DAT, dry weight vs control, plus 1% COC) it was 21 g ai ha^−1. Also, in experiment [2] (lines homozygous for resistance vs S plants (FIG. 2; Table 2)), the “fold higher doses survived compared with S plants” value was determined as 53 fold.
Regarding `O=C(O)c1cc(Oc2ccc(C(F)(F)F)cc2Cl)ccc1[N+](=O)[O-]` [Acifluorfen, 5-{2-chloro-4-(trifluoromethyl)phenoxy}-2-nitrobezoic acid], the “GR50 (growth reduction by 50%) R” value in experiment [2] (10 DAT) came out at 5.8 g ai ha^−1.
